Experimental data published in patent publication US7786042B2, “Fluridone as an anti-inflammatory agent” (Universita' Degli Studi Di Genova, priority 2005, dated 2010).
“Also recorded” adds a separate entry of the source. Read-outs that look alike come from different tables or passages of the source.

How the values were obtained:
human monocytes [1] = experiment: PGE2 production / COX-2 expression in human monocytes; type: cell-based
Method: (§1) Human monocytes were pre-incubated with 50 μM fluridone (flu) for 2 hours and then stimulated with 10 μM ABA or with 100 ng/ml of lipopolysaccharide (LPS) for 6 hours. The concentration of PGE2 (panel A) and of TNF-α (panel B) in the cell supernatant was measured as described under Materials and Methods and compared with that of untreated cells (control). The results are the mean ±SD from 4 experiments.
(§2) The method used to assay TNF-α is based on the high sensitivity of the murine fibroblast cell line L929 to the toxic effect of this cytokine. Briefly, fibroblasts were seeded (3×10^4/well) in 96-well plates and after 24 h the medium was substituted with the supernatant of the cell cultures where the TNF-α content was to be estimated. In parallel, known amounts of the cytokine were added to other wells, in order to obtain a standard curve of toxicity. After 48 hours, MTT (0.05 mg/ml) was added to each well and after 3 hours incubation at 37° C. (during this time viable cells reduce the dye producing formazan crystals), the medium was removed, DMSO (200 μl/well) was added to dissolve the formazan crystals and the absorbance was recorded at 570 nm with a spectrophotometric plate reader. The TNF-α concentration in the culture supernatants was calculated by comparison of the percentage of viable cells in the treated wells with those containing known amounts of TNF-α (standard curve). The PGE2 release in the medium by stimulated inflammatory cells was measured by an immunoenzymatic assay kit, commercially available (PGE2 EIA-kit, Cayman Chemicals, Ann Arbor, Mich., USA).

[2] = tested on: murine macrophages RAW 264.7; experiment: PGE2 production by murine macrophages RAW 264.7; type: cell-based
Method: (§3) Murine macrophages of the continuous cell line RAW 264.7 were pre-incubated with 50 μM fluridone (flu) for 2 hours and then stimulated with 10 μM ABA or with 100 ng/ml of lipopolysaccharide (LPS) for 6 hours. The concentration of PGE2 (panel A) or of TNF-α (panel B) in the cell supernatant was measured as described under Materials and Methods and was compared with that from untreated (control) cells. The results are the mean ±SD from 4 experiments.
as §2

[3] = tested on: murine macrophages RAW 264.7; experiment: TNF-α production by murine macrophages RAW 264.7; type: cell-based
Method: as §3, §2

human monocytes [4] = experiment: MCP-1 release from human monocytes; type: cell-based
Method: Human monocytes were incubated for 6 hours with 10 μM ABA or with 100 ng/ml of lipopolysaccharide (LPS), in the presence or in the absence of fluridone (50 μM) and the MCP-1 concentration in the cell supernatant was immunoenzimatically measured, with a commercially available kit (R&D System, CA, USA). The results are the mean ±SD from 3 experiments.

human monocytes [5] = experiment: TNF-α release by human monocytes (L929 toxicity assay); type: cell-based
Method: as §1, §2

[6] = tested on: murine microglia cell line N9; experiment: TNF-α release by murine microglia N9; type: cell-based
Method: Confluent cell cultures from the murine microglia cell line N9 were pre-incubated in the presence or in the absence of 50 μM fluridone for 4 hours and then stimulated with 10 μM ABA or with 100 ng/ml lipopolysaccharide for 24 hours. The concentration of PGE2 (panel A) and of TNF-α (panel B) in the cell supernatant was measured as described under Materials and Methods. The results are expressed as release relative to control cultures in the absence of added stimuli and are the mean ±SD from 4 experiments.
as §2

human granulocytes [7] = experiment: ROS production by granulocytes (cytochrome c assay); type: cell-based; details: ABA 0.2-20 μM
Method: Granulocytes were resuspended at 5×10^6/ml in HBSS and 225 μl of the cell suspension were added to 50 μl of 0.2 mM cytochrome c and were incubated for 30 min at 37° C. in the absence (control) or in the presence of 250 nM or 20 μM ABA, the latter concentration without or with 1 mM EDTA, 20 mM nicotinamide or 0.1 mM 8-Br-cADPR. The amount of ROS (panel A) or of NO (panel B) in the cell supernatant was measured as described in Materials and Methods. The results are expressed as the production relative to control cells, not stimulated with ABA, and are the mean ±SD from 5 experiments.
Release of superoxide (O2^−) by human granulocytes was quantified by a spectrophotometric assay of cytochrome c reduction (Cohen, J Clin Invest 1978). Granulocytes were resuspended in HBSS (at 5×10^6 cells/ml) and 225 μl of the cell suspension was incubated for 30 min at 37° C. with 50 μl cytochrome c (0.2 mM) in the absence (control) or in the presence of ABA at different concentrations. Then, cells were centrifuged at 5,000×g for 15 s and the absorbance of the supernatants was recorded at 550 nm (λmax for reduced cytocrome c).

human lymphocytes = experiment: Lymphocyte proliferation ([3H]-thymidine incorporation); type: cell-based; details: for inhibition at 50 µM: Homo sapiens, Lymphocyte, pre-incubation with fluridone 50 μM
Method: Low density mononuclear cells (lymphocytes and monocytes), isolated from peripheral blood, were incubated in triplicate (1.5×10^5/well) in 96-well plates in RPMI containing 20% autologous plasma in the absence (control) or in the presence of 50 μM fluridone for 18 hours. Phytohemagglutinin (PHA) (0.1 μg/ml) or phorbol myristate acetate (PMA) (0.1 μg/ml) were then added, with or without the simultaneous addition of ABA. After 72 hours, [^3H]-Thymidine (Amersham Biosciences, Uppsala, Sweden) was added to the cultures (0.2 μCi/well) and after 6 hours the incorporated radioactivity was evaluated by filtration of the cells on glass fiber filters (Whatman, Maidenstone, UK). Results are the mean ±SD from 3 experiments. In the absence of stimuli (PHA or PMA), no lymphocyte proliferation was observed.
Blood enriched in leukocytes (buffy coat), was provided by Galliera Hospital, Genova, Italy, upon informed consent of the volunteer donors. Lymphocytes, granulocytes and monocytes were isolated by density centrifugation through Ficoll-Paque (Amersham Biosciences, Uppsala, Sweden). Low-density mononuclear cells (including lymphocytes and monocytes) were collected at the plasma-Ficoll interphase and monocytes were further purified by adherence to plastic cell culture flasks. Granulocytes were isolated from high-density cells, sedimented under the Ficoll layer by hypotonic lysis of contaminating erythrocytes. All cell populations were then resuspended in RPMI 1640 medium (Sigma) containing penicillin (100 U/ml), streptomycin (100 μg/ml) and 20% autologous plasma. Culture conditions were as those described below for cell lines.

human granulocytes [8] = experiment: NO release by granulocytes (nitrite, Griess); type: cell-based
Method: Granulocytes were resuspended at 5×10^6/ml in HBSS and 225 μl of the cell suspension were added to 50 μl of 0.2 mM cytochrome c and were incubated for 30 min at 37° C. in the absence (control) or in the presence of 250 nM or 20 μM ABA, the latter concentration without or with 1 mM EDTA, 20 mM nicotinamide or 0.1 mM 8-Br-cADPR. […] The results are expressed as the production relative to control cells, not stimulated with ABA, and are the mean ±SD from 5 experiments.

[9] = tested on: murine microglia cell line N9; experiment: NO release by murine microglia N9; type: cell-based
Method: The method used to determine NO released from the cells into the medium exploits the spontaneous conversion of NO to nitrates and the subsequent enzymatic reduction of nitrates to nitrites by the enzyme nitrate reductase. […] Granulocytes (60×10^6/well) or murine microglia cells N9 (2×10^5/well) were incubated in 24-well plates for 60 min at 37° C. in the presence of ABA at different concentrations. The supernatants were then centrifuged and diluted with an equal volume of Griess reagent (0.1% naphthyl-ethylenediamine dihydrochloride in distilled water, 1% sulphanylamide in 5% concentrated H3PO4). Absorbance at 545 nm was estimated after 10 min and the nitrite concentration was calculated using a standard curve, generated in parallel with known amounts of NaNO2.

[10] = cited from earlier work
[11] = exogenous ABA 10-20 μM added to fluridone-treated cultures

With `CC1=CC(=O)CC(C)(C)[C@@]1(O)/C=C/C(C)=C\C(=O)O` (racemic) [ABA, (±)-cis, trans ABA] the “expression of cyclooxygenase 2 (COX-2), Western blot” value (human monocytes [1]; ABA 0.1-10 μM) was “increased expression”, the “production of prostaglandin E2 (PGE2)” value (human monocytes [1]; ABA 0.1-10 μM) was “increased production” and the “Effects of ABA: COX-PGE2” value (human monocytes [1]; Added ABA 5-50 μM) was “↑COX-PGE2”. The “release of PGE2 (COX-PGE2)” value ([2]; ABA 0.1-10 μM) was “increased release; also recorded: ↑COX-PGE2”, the “release of TNF-α” value ([3]; ABA 0.1-10 μM) was “increased release; also recorded: ↑TNF-α release” and the “TNF-α release compromised by fluridone” value [3, 11] was “partly restores”. For the same compound, the “increase of release of MCP-1” value (human monocytes [4]; ABA 0.1-10 μM) was “approx. two-fold”, the “Effects of ABA: MCP-1 release” value (human monocytes [4]; Added ABA 5-50 μM) was “↑MCP-1 release” and the “release of TNF-α” value (human monocytes [5]; ABA 0.1-10 μM) was “significant increase”. The “Effects of ABA: TNF-α release” value (human monocytes [5]; Added ABA 5-50 μM) was “↑TNF-α release”, the “TNF-α release compromised by fluridone” value (human monocytes [5]; [11]) was “partly restores” and the “release of TNF-α” value ([6]; ABA 0.2-20 μM) was “increase; also recorded: ↑TNF-α release”. For the same compound, the “TNF-α release compromised by fluridone” value [6, 11] was “partly restores”, the “production of reactive oxygen species (ROS)” value (human granulocytes [7]) was “stimulation; also recorded: ↑ROS release” and the stimulation of proliferation (human lymphocytes; ABA 50 to 500 μM, in the absence of other stimuli (PMA, PHA)) was 30%. The “Effects of ABA: proliferation” value (human lymphocytes; Added ABA 50-500 μM) was “↑proliferation”, the “restoration of the proliferative response” value (human lymphocytes; excess exogenous ABA 500 μM together with fluridone) was “approximately 40%” and the “production/release of nitric oxide (NO)” value (human granulocytes [8]; ABA 0.2-20 μM) was “stimulation; also recorded: ↑NO release”. The “release of NO” value ([9]; ABA 0.2-20 μM) was “increase; also recorded: ↑NO release” and the “NO release compromised by fluridone” value [9, 11] was “partly restores”.
In the case of `Cn1cc(-c2ccccc2)c(=O)c(-c2cccc(C(F)(F)F)c2)c1` [Fluridone, 1-methyl-3-phenyl-5-(α,α,α-trifluoro-m-tolyl)-4-pyridone], the “Effects of Fluridone: COX-PGE2” value (human monocytes [1]) is reported as “↓COX-PGE2”, the “LPS-stimulated PGE2 production” value (human monocytes [1]; fluridone 50 μM) is reported as “completely inhibits” and the “Effects of Fluridone: COX-PGE2” value [2] is reported as “↓COX-PGE2”. For the same compound, the “LPS-stimulated PGE2 production” value ([2]; fluridone 50 μM) was “completely inhibits”, the “Effects of Fluridone: TNF-α release” value [3] was “↓TNF-α release” and the inhibition at 50 µM ([3]; Mus musculus, RAW264.7, fluridone 50 μM, read-out: inhibition of LPS-induced TNF-α production) was 90%. For the same compound, the “Effects of Fluridone: MCP-1 release” value (human monocytes [4]) was “↓MCP-1 release”, the “release of MCP-1 by LPS-stimulated monocytes” value (human monocytes [4]; fluridone 50 μM) was “almost completely inhibits” and the “Effects of Fluridone: TNF-α release” value (human monocytes [5]) was “↓TNF-α release”. For the same compound, the inhibition at 50 µM (human monocytes [5]; Homo sapiens, Monocyte, fluridone 50 μM, read-out: inhibition of LPS-induced TNF-α production) was 90%, the “Effects of Fluridone: TNF-α release” value [6] was “↓TNF-α release” and the “maximum permissible intake allowed in humans” value ([10]; from chronic toxicity in rats fed with fluridone, dose reduction of two logarithms) was 4.8 mg/kg/day. The “ADI (acceptable daily intake)” value ([10]; humans) was 0.08 mg/Kg/die, the “Effects of Fluridone: PMA-, LPS-, PHA-induced proliferation” value (human lymphocytes) was “↓PMA-, LPS-,” and the inhibition at 50 µM (human lymphocytes; read-out: inhibition of PHA-induced cell proliferation) was 50%. For the same compound, the inhibition at 50 µM (human lymphocytes; read-out: inhibition of PMA-induced cell proliferation) was 90%, the “Effects of Fluridone: fMLP-, ATP-, β-amyloid-induced NO release” value (human granulocytes [8]) was “↓fMLP-, ATP-, β-” and the inhibition at 50 µM (human granulocytes [8]; Homo sapiens, read-out: inhibition of NO release) was ~80%. The “Effects of Fluridone: NO release” value [9] was “↓NO release”.
